Consider two compounds from patent US4004029A, “Compositions and method for treating epilepsy and convulsions” (The Upjohn Company, priority 1975, dated 1977).

Data set [1] relates to electroshock-induced seizures (tonic extensor seizures). Put plainly: Protection against electroshock-induced seizures in mice. Format: in vivo, mice (Cartworth farms, male albino). To be noted: for ED50: 25 milliamps. From the text: Med. Chem. 8, 5-8, (1965). […] […] The number of mice protected against tonic extensor seizures is used as a quantal response to calculate the Ed50, by the method of Spearman and […] (see D. J. Finney, "Statistical Methodology in Biological Assay", Hofner Publishing Co., New York, N.Y. 1952, page 524). For control purposes, a group of six mice is similarly treated with diphenylhydantoin and shocked.

Data set [2] concerns seizures induced by electroshock. Nature of the data set: Protection against seizures induced by electroshock in rats. To be noted: for ED50: Rattus norvegicus, ip, 150 milliamps. The class given is in vivo, rats (Sprague Dawley male albino). From the text:
After about thirty minutes, the mice are shocked via ear clip electrodes, with a 60-cycle electrical current for 0.2 second, using a current intensity of 25 milliamps. The number of mice protected against tonic extensor seizures is used as a quantal response to calculate the Ed50, by the method of Spearman and […] (see D. J. Finney, "Statistical Methodology in Biological Assay", Hofner Publishing Co., New York, N.Y. 1952, page 524). For control purposes, a group of six mice is similarly treated with diphenylhydantoin and shocked. […] Protection against seizures induced by electroshock is also shown in rats (Sprague Dawley male albino rats weighting 150 to 300 grams each). The testing procedure is identical to that used in Example 9 supra. except that the electroshock current intensity is increased from 25 to 150 milliamps to accommodate this larger species.

The test system of data set [3] is electrically induced afterdischarge. Nature of the data set: Depression of electrically induced afterdischarges in the cat. Format: in vivo, cat (mongrel cats of either sex). Set-up: duration of afterdischarge: unit not given here. To be noted: for duration of afterdischarge: intravenous. The source says:
N. Strow and C. L. Mitchell, Electroenceph. […] Mongrel cats of either sex weighing 1.5-3.0 kg. are anesthetized with halothane. Two pair of stainless steel screw electrodes are placed bilaterally in the skull for stimulation and recording. The cats are paralyzed with decamethonium, artifically respired and after ninety minutes allowed to blow off the halothane. […] is elicited by electrical stimulation across one pair of electrodes (5 second train of 1 millisecond pulses at 50 pulses per second at 5.0-10 milliamps). Duration of discharge is recorded from the second electrode pair. Two groups of controls are taken before test drug administration and duration of […] measured after each dose of test drug.

A short description of another data set: in vivo. Conditions: mouse, ip.
The mark [4] stands for this setting: Mus musculus, ip, 0.5 h, absorption time 0.5 (Minutes).

A word on the ED50: it is the dose that gives a 50% effect, or the effect in half of the subjects. In general, LD50 refers to the dose expected to kill half of the subjects tested. On to `Cc1cccc(C(=O)Nc2c(C)cccc2C)c1N` [N'-(2,6-dimethylphenyl)-2-amino-3-methylbenzamide], for which the ED50 in data set [1] (IP, absorption time 0.5 (Minutes), 0.5 min) came to 5.6 mg/kg; in data set [1] (setting [4]), 7 mg/kg; in data set [1] (Mus musculus, po, 1 min, absorption time 1 (Minutes)), 10 mg/kg; in data set [1] (Mus musculus, po, 2 min, absorption time 2 (Minutes)), 10 mg/kg; in data set [1] (Mus musculus, po, 4 min, absorption time 4 (Minutes)) it was 11 mg/kg; in data set [1] (Mus musculus, po, 8 min, absorption time 8 (Minutes)), 32 mg/kg. Also, the 50% effective dose (ED50) in data set [1] (Mus musculus, po, 16 min, absorption time 16 (Minutes)) turned out to be 112 mg/kg; in data set [1] (Mus musculus, po, 0.4 h, absorption time 24 (Minutes)) it was 178 mg/kg; in data set [1] (Mus musculus, po, 0.5 h, absorption time 0.5 (Minutes)), 10 mg/kg; in data set [2] (0.5 h, absorption time 30 min) it was 4.5 mg/kg; in data set [2] (1 h, absorption time 60 min), 2.5 mg/kg; in data set [2] (4 h, absorption time 240 min), 4.5 mg/kg. Moreover, in data set [2] (8 h, absorption time 480 min), the ED50 stood at 7.1 mg/kg. Besides, the duration of action entry in data set [1] (electroshock, Table I) is “long acting”. The “anticonvulsive potency compared with diphenylhydantoin” value in data set [2] (electroshock, milligram basis) is listed as “more potent on a milligram basis than diphenylhydantoin”. For the same compound, the duration of afterdischarge was found to be 31 in data set [3] (2.5 mg./kg. total dose), 27 in data set [3] (5.0 mg./kg. total dose), 4 in data set [3] (10.0 mg./kg. total dose) and 2 in data set [3] (20.0 mg./kg. total dose). Also, the “Relative Potency (shortening of afterdischarge)” value in data set [3] (relative to diphenylhydantoin on a milligram basis) is recorded as 1.42. Besides, the LD50 in the data set “in vivo” was 297 mg/kg.

For the compound `O=C1NC(=O)C(c2ccccc2)(c2ccccc2)N1` [diphenylhydantoin, reference compound], the median effective dose (ED50) was 14 mg/kg in data set [1] (setting [4]) and 8 mg/kg in data set [2] (0.5 h, absorption time 30 min). Moreover, the duration of afterdischarge is 30 in data set [3] (2.5 mg./kg. total dose), 32 in data set [3] (5.0 mg./kg. total dose), 9 in data set [3] (10.0 mg./kg. total dose) and 4 in data set [3] (20.0 mg./kg. total dose).
